In patent US6214805A, “RNase L activators and antisense oligonucleotides effective to treat RSV infections” (priority 1997, dated 2001):
pEC50, pIC50: −log10 of the molar value. “And” between values parts separate entries of the source, which are not always exact repeats. Equal entries are not always repeated.

Experiments:
RSV strain A2 [1] = assay: Inhibition of RSV replication in RSV-infected 9HTE cells, virus plaque assay on CV-1 cells at 36 h post-infection; format: cell-based, Respiratory syncytial virus; settings: 9HTE cells; for % Inhibition of RSV replication: M.O.I. 2.0, 36 hrs post-infection
From the text: To develop 2-5A antisense chimeras with the potential to block RSV replication, an oligonucleotide binding site in the viral RNA polymerase (RSV L) mRNA, which encodes a low abundance message that is absolutely required for RSV replication was selected. The first chimera synthesized and evaluated was pA4 -antiRSV/(8490-8509). The binding sites for the chimeric oligonucleotide's antisense domain are to the transcripts of nucleotides 8490-8509 in the RSV genome, which spans the translation start codon for the L protein, and to nucleotides 8490-8509 of the antigenomic strand (the template for reproduction of the genome). Since to function as an effective treatment, a candidate agent must be able to inhibit viral replication subsequent to diagnosis, the anti-RSV effect of the 2-5A antisense chimera was determined on human tracheal epithelial cells, 9HTE, with treatments beginning either 4 h before RSV infection (pre-/post-infection treatments) or 2 h following infection (post-infection treatments). In the post-infection treatments, pA4 -antiRSV/([…]), was added at t+2, t+14 and t+26, (numbers represent time in h relative to time of infection, 0) For pre-infection treatment, pA4 -antiRSV/(8490-8509) (10 μM final concentration), was added at t-4, and t0 in addition to […]; t+14 and t+26. Virus harvested from control and oligonucleotide-treated 9HTE cells was measured by infecting CV-1 cells and subsequently counting viral plaques. […] On the basis of these experiments, all subsequent experiments were performed with post-infectiontreatments only. Additionally, these experiments indicate the potential use of these compounds as a treatment for active infection as compared to a prophylactic measure.
The human tracheal epithelial cell line, 9HTE, (Gruenert et al., 1988) and CV-1 cells, (American Type Culture Collection, Rockville, Md., CCI#70) a green monkey kidney cell line which is highly permissive to RSV infection, were cultured in minimal essential medium (MEM) supplemented with 10% (v/v) fetal bovine serum (FBS), 2 mM L-glutamine, 1× MEM amino acids solution, 1× MEM non-essential amino acids solution, 100 U/ml penicillin, 100 μg/ml streptomycin and 0.25 μg/ml amphotericin B ("culture medium") (all reagents from Gibco BRL, Bethesda, Md.). RSV strain A2 (ATCC No. VR1302) was propagated in CV-1 cells. CV-1 monolayers were infected at a multiplicity of infection (M.O.I.) of 0.2 and cultured 46 h in MEM, 2% FBS, 1× Penicillin/Streptomycin (PS) in 5% CO2, 95% O2 at 37° C. Cells were then washed 2 times in MEM and subsequently covered in MEM, 2% FBS, 1× PS, 50 mM HEPES (pH7.5), 100 mM Mg(SO4). After 2 h at 37° C., cells were scraped and sonicated as previously described (Panuska et al., 1995). Aliquots (1 ml each) of cell sonicates were flash frozen in ethanol/dry ice within 20 min of scraping. Several aliquots were then thawed and titered by a plaque assay on CV-1 cells as previously described (Cirino et al., 1993). The range of virus yield from this procedure was 2 to 7×10^6 plaque forming units (pfu) per ml.
Infection of 9HTE cells was performed as previously described (Merolla et al., 1994). Briefly, confluent monolayers were exposed to RSV diluted in MEM, 2% FBS, for 2 h at 37° C. in 5% CO2, 95% O2. After exposure, cells were washed two times with serum-free MEM media and then fresh culture media (with 10% FBS) was added. Oligonucleotides were either added 4 h prior to infection (t-4) or immediately after infection (t+2) and also at t+14 and t+26. Cells were harvested for plaque assays at 36 h post-infection to determine viral titers as previously described (Cirino et al., 1993). Cells were washed twice to remove any residual antisense and were then scraped in MEM containing 2% FBS, 1× PS. 9HTE cells were sonicated for 20 sec on ice then the extracts were serially diluted and transferred to a confluent monolayer of CV-1 for quantitation of infectious viral particles. […]

RSV strain A2 [2] = assay: CPE inhibition assay in HEp-2 cells; format: cell-based, Respiratory syncytial virus; settings: Table 10, CPE, HEp2; for pEC50: read-out: EC50
Experimental: The CPE inhibition assay used in this study was performed as described by Sidwell and Huffman (Sidwell et al., 1971, Appl. Microbiol. 22:7979-7801) with slight modifications. Varying concentrations of test compounds were added to each plate containing near confluent cell monolayers (1×10^5 cells/well) followed immediately by the addition of virus at a multiplicity of infection (MOI)=0.01, and then incubated at 37° C. […] All compounds were assayed for virus inhibition in quadruplicate and for cytotoxicity in duplicate. For each compound, two wells were set aside as uninfected, untreated cell controls per test and four wells per test received virus only and represented controls for virus replication. […] For all CPE-based assays, the 50% effective concentration (EC50) was calculated by regression analysis using the means of the CPE ratings at each concentration of compound.

Hep-2 Cells [3] = assay: Cytotoxicity by morphological changes in HEp-2 cells (CPE inhibition assay); format: cell-based, human; settings: Table 10, CPE, HEp2
Experimental: (§1) Embryonic African green monkey kidney cells (MA-104) were obtained from BioWhittaker, Inc. (Walkersville, Md.). HEp-2 cells were propagated from a human epidermoid carcinoma of the larynx (American Type Culture Collection, ATCC; Rockville, Md.). The cells were grown in minimal essential medium. (MEM, Gibco-BRL, Gaitherburg, Md.) supplemented with 0.1% NaHCO3 and 10% fetal bovine serum (FBS, Hyclone Laboratories, Logan Utah.). When performing antiviral assays, serum was reduced to 2% and 50 μg/ml gentamicin (Sigma Chemical Company, St. Louis, Mo.) was added to the medium.
Morphological changes due to compound cytotoxicity were graded on a scale of 0-5; grade 5 was defined as 100% cytotoxicity. The 50% cytotoxic dose (IC50 was calculated by regression analysis. A selective index (S.I.) was calculated for each compound [S.I.=(IC50)/(EC50 ].

RSV strain A2 [4] = assay: Neutral red uptake assay of CPE inhibition in HEp-2 cells; format: cell-based, Respiratory syncytial virus; settings: Table 11, neutral red, HEp2; for pEC50: read-out: EC50
Experimental: (§2) This assay was performed by a modified method as described by Cavenaugh et al. (Cavenaugh et al. 1990, Invest. New Drugs 8:347-354). Briefly, medium was removed from each well of a plate scored for CPE from a CPE inhibition assay, 0.2 ml of neutral red (0.034% in PSS) was added to each of the wells of that plate and the plate incubated for 2 hr at 37° C. in the dark. The neutral red solution was removed from the wells and the wells rinsed twice with PBS (pH 7.4). Equal volumes (0.1 ml) of absolute ethanol and Sorenson citrate buffer (0.1 M sodium citrate, 0.1 M HCI, pH 4.2) were mixed together and added to each well. Plates were incubated in the dark for 30 min. at room temperature to solubilize the dye. The plates were then gently mixed on a 96-well plate adapted vortexer for 1 min. Absorbances at 540 nm and 450 nm were read with a microplate reader (Bio-Tek EL 1309; Bio-Tek Instruments, Inc. Winooski, Vt.). Absorbance values were expressed as percents of untreated controls and EC50 and IC50 values were calculated by regression analysis.

Hep-2 Cells [5] = assay: Neutral red uptake assay of cytotoxicity in HEp-2 cells; format: cell-based, human; settings: Table 11, neutral red, HEp2
Experimental: as §1, §2

[6] = 3.3 μM oligonucleotide/treatment at t+2, t+14, t+26 h
[7] = 6.6 μM oligonucleotide/treatment at t+2, t+14, t+26 h
[8] = 9.9 μM oligonucleotide/treatment at t+2, t+14, t+26 h
[9] = q.d. 1 day (added along with virus, never replenished)

spA2'p(A2'p)3 -[(Bu)p]2 -(5'gat aag gac cat tga ata t3'-3'g5') [spA4-antiRSV3'-3'G/(8599-8618)]
% Inhibition of RSV replication (RSV strain A2 [1]; [6]): 43% and 44%

spA2'p(A2'p)3 -[(Bu)p]2 -(5'ata gtg tgt tct ttt gat t3'-3'a5') [spA4-antiRSV3'-'3A/(8251-8270)]
% Inhibition of RSV replication (RSV strain A2 [1]; [6]): 86.7% | % Inhibition of RSV replication (RSV strain A2 [1]; [7]): 92%

spA2'p(A2'p)3 -[(Bu)p]2 -(5'aat ggg atc cat ttt gtc cc3') [spA4-antiRSV/(8490-8509)]
% Inhibition of RSV replication (RSV strain A2 [1]; [6]): 16.5% | % Inhibition of RSV replication (RSV strain A2 [1]; [7]): 71% | % Inhibition of RSV replication (RSV strain A2 [1]; [8]): 94%

A2'p(A2'p)3 -[(Bu)p]2 -(5'aat ggg atc cat ttt gtc c3'-3'c5') [A4-antiRSV3'-3'C/(8490-8509)]
% Inhibition of RSV replication (RSV strain A2 [1]; [7]): 20% | % Inhibition of RSV replication (RSV strain A2 [1]; [8]): 28.3%

spA2'p(A2'p)3 -[(Bu)p]2 -(5'gat tga aat ata gtg tgt3'-3't5') [spA4-antiRSV3'-3'T/(8261-8279)]
% Inhibition of RSV replication (RSV strain A2 [1]; [6]): 78% | % Inhibition of RSV replication (RSV strain A2 [1]; [7]): 87% | % Inhibition of RSV replication (RSV strain A2 [1]; [8]): 87%

pA2'p(A2'p)3 -[(Bu)p]2 -(5'aat ggg atc cat ttt gtc cc3') [pA4-antiRSV/(8490-8509)]
% Inhibition of RSV replication (RSV strain A2 [1]; [6]): 3% | % Inhibition of RSV replication (RSV strain A2 [1]; [7]): 38.8% | % Inhibition of RSV replication (RSV strain A2 [1]; [8]): 64.8% | inhibition of RSV replication (RSV strain A2 [1]; post-infection treatment, 10 μM at t+2, t+14, t+26): about 70% | inhibition of RSV replication (RSV strain A2 [1]; pre-/post-infection treatment, 10 μM at t-4, t0 and after infection): about 70%

pA2'p(A2'p)3 -[(Bu)p]2 -(5'aat ggg atc cat ttt gtc c3'-3'c5') [pA4-antiRSV3'-3'C/(8490-8509)]
% Inhibition of RSV replication (RSV strain A2 [1]; [6]): 2% | % Inhibition of RSV replication (RSV strain A2 [1]; [7]): 64.3% and 38.8% | % Inhibition of RSV replication (RSV strain A2 [1]; [8]): 64.8% and 74%

sp(5'A2')4 BupBupd(GsAsTsAGAAATAGAAAsGsCsA) (antisense GATAGAAATAGAAAGCA; chemistry not fully specified) [MP426, 2-5A-antisense control with scrambled antisense domain of MP351]
SI (RSV strain A2 [2]; B.I.D. 2 days): > 32 | SI (RSV strain A2 [2]; B.I.D. 3 days): 16 | pEC50 (RSV strain A2 [2]; B.I.D. 3 days): 6.70 | SI (RSV strain A2 [2]; B.I.D. 4 days): 3.2 | pEC50 (RSV strain A2 [2]; [9]): < 5.49 | SI (RSV strain A2 [2]; q.d. 3 days): > 1 | pEC50 (RSV strain A2 [2]; q.d. 3 days): 5.49 | SI (RSV strain A2 [2]; q.d. 4 days): > 3.2 | pIC50 (Hep-2 Cells [3]; B.I.D. 2 days): < 5.49 | pIC50 (Hep-2 Cells [3]; B.I.D. 3 days): 5.49 | pIC50 (Hep-2 Cells [3]; B.I.D. 4 days): 5.49 | pIC50 (Hep-2 Cells [3]; [9]): < 5.49 | pIC50 (Hep-2 Cells [3]; q.d. 3 days): < 5.49 | pIC50 (Hep-2 Cells [3]; q.d. 4 days): < 5.49 | SI (RSV strain A2 [4]; B.I.D. 2 days): > 11 | pEC50 (RSV strain A2 [4]; B.I.D. 2 days): 6.52 | SI (RSV strain A2 [4]; B.I.D. 3 days): 3.2 | pEC50 (RSV strain A2 [4]; B.I.D. 4 days): < 5.49 | pEC50 (RSV strain A2 [4]; [9]): < 5.49 | pEC50 (RSV strain A2 [4]; q.d. 3 days): < 5.49 | pEC50 (RSV strain A2 [4]; q.d. 4 days): < 5.49 | pIC50 (Hep-2 Cells [5]; B.I.D. 2 days): < 5.49 | pIC50 (Hep-2 Cells [5]; B.I.D. 3 days): 5.49 | pIC50 (Hep-2 Cells [5]; B.I.D. 4 days): 5.49 | pIC50 (Hep-2 Cells [5]; [9]): < 5.49 | pIC50 (Hep-2 Cells [5]; q.d. 3 days): 5.49 | pIC50 (Hep-2 Cells [5]; q.d. 4 days): 5.49

pA2'p(A2'p)3 -[(Bu)p]2 -(3'ccc tgt ttt acc tag ggt aa5') [pA4-3'antiRSV5'/(8490-8509)]
% Inhibition of RSV replication (RSV strain A2 [1]; [8]): 69%

spA2'p(A2'p)3 -[(Bu)p]2 -(5'ctc tga gaa aga gat aa3'-3'c5') [spA4-antiRSV3'-3'C/(8561-8578)]
% Inhibition of RSV replication (RSV strain A2 [1]; [6]): 57%
